In patent publication US9095631B2, “Tetrahydroisoquinoline compounds for use in the diagnosis and treatment of neurodegenerative diseases” (UNIVERSITA DEGLI STUDI DI BARI “ALDO MORO”, priority 2011, dated 2015):

Key:
MRP1 = molecular target: T1, MRP1 (Homo sapiens, UniProt P33527); test: Inhibition of the transport of Calcein-AM on MDCK cell lines overexpressing MDR proteins (MRP1); format: cell-based; settings: for EC50: Calcein-AM transport inhibition, MDCK cells overexpressing MRP1
T1 construct: expressed in transfected cells; host or cells: MDCK
Description: (§1) 3) Inhibition of the Transport of Calceina-AM and of Rhodamine-123 on MDCK Cell Lines Overexpressing MDR Proteins.
(§2) In this assay the inhibition of the transport of a BCRP fluorescent substrate, Rhodamina-123, or of a P-gp or MRP1 profluorescent substrate, Calcein-AM, is determined.
(§3) Calcein-AM, entering the cell membrane is […] by citosolic esterase to fluorescent calcein (that is not a P-gp substrate) leading to a fluorescent signal. Therefore, the inhibition of the efflux pump will be directly correlated to the fluorescent signal due to the cell accumulation of Calcein-AM (see Feng, B., et al., 2008; Drug Metab. Dispos. 36, 268-275).

P-gp [1] = molecular target: T2, P-gp (Homo sapiens, UniProt P08183); test: Apparent Permeability Determination (Papp) on Caco-2 cells overexpressing P-gp; format: in vitro ADME; settings: ratio Papp-BA/Papp-AB, 18-20 transported by P-gp, 2-18 modulator, 1-2 not transported
Description: 1) Apparent Permeability Determination (Papp)
This assay is carried out on colon adenocarcinoma cell line (Caco-2) overexpressing P-gp, a cell model usually employed for the permeability study. In this experiment Apparent Permeability (Papp) is determined both in basolateral/apical direction (Papp-BA) and in apical/basolateral direction (Papp-AB). The BA/AB ratio allow to discriminate if a ligand is transported by P-gp (BA/AB ratio between 18 and 20), or not (BA/AB ratio between 1 and 2). For BA/AB ratio between 2 and 18 compounds can be classified as modulators (see Polli, J. V et al., 2001, J. Pharmacol. Exp. Ther. 299, 620-628).

P-gp [2] = molecular target: T2, P-gp; test: Inhibition of the transport of Calcein-AM on MDCK cell lines overexpressing MDR proteins (P-gp); format: cell-based; set-up: expressed in transfected cells; host or cells: MDCK; settings: MDCK cells overexpressing P-gp
Description: as §1, §2, §3

T2 sequence (P08183 whole entry): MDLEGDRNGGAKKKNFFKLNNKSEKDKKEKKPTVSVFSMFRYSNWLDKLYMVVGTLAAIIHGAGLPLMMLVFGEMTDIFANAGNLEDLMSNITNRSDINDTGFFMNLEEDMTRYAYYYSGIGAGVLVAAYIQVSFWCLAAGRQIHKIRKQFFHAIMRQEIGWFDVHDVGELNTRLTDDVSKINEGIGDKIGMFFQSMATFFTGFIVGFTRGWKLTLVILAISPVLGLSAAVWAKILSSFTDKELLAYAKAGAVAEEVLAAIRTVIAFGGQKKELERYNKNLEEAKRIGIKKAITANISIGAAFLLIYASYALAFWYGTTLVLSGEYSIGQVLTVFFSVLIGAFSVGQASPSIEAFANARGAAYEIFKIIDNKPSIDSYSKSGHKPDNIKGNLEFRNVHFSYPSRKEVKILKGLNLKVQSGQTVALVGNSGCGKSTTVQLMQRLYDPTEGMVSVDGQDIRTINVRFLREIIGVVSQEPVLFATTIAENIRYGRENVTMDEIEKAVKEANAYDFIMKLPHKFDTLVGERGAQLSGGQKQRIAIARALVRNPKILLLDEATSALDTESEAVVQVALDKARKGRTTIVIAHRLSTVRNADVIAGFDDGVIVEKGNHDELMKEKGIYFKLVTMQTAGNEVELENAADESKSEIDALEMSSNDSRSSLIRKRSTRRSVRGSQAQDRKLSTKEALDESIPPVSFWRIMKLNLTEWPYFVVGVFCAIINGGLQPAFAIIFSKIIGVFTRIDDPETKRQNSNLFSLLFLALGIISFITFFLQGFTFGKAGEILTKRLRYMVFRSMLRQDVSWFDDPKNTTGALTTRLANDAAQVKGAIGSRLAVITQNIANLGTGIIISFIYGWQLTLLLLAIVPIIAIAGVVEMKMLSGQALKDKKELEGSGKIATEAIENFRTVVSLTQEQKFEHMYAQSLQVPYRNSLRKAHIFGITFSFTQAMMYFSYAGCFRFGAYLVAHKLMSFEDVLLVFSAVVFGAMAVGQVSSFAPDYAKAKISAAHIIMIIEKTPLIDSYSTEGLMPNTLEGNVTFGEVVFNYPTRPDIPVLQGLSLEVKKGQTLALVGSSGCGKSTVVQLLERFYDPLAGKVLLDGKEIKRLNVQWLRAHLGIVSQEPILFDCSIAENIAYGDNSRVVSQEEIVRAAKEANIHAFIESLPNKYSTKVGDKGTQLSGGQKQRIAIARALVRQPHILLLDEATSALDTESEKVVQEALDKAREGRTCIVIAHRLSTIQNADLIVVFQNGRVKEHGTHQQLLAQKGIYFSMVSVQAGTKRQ
T1 sequence (P33527 whole entry): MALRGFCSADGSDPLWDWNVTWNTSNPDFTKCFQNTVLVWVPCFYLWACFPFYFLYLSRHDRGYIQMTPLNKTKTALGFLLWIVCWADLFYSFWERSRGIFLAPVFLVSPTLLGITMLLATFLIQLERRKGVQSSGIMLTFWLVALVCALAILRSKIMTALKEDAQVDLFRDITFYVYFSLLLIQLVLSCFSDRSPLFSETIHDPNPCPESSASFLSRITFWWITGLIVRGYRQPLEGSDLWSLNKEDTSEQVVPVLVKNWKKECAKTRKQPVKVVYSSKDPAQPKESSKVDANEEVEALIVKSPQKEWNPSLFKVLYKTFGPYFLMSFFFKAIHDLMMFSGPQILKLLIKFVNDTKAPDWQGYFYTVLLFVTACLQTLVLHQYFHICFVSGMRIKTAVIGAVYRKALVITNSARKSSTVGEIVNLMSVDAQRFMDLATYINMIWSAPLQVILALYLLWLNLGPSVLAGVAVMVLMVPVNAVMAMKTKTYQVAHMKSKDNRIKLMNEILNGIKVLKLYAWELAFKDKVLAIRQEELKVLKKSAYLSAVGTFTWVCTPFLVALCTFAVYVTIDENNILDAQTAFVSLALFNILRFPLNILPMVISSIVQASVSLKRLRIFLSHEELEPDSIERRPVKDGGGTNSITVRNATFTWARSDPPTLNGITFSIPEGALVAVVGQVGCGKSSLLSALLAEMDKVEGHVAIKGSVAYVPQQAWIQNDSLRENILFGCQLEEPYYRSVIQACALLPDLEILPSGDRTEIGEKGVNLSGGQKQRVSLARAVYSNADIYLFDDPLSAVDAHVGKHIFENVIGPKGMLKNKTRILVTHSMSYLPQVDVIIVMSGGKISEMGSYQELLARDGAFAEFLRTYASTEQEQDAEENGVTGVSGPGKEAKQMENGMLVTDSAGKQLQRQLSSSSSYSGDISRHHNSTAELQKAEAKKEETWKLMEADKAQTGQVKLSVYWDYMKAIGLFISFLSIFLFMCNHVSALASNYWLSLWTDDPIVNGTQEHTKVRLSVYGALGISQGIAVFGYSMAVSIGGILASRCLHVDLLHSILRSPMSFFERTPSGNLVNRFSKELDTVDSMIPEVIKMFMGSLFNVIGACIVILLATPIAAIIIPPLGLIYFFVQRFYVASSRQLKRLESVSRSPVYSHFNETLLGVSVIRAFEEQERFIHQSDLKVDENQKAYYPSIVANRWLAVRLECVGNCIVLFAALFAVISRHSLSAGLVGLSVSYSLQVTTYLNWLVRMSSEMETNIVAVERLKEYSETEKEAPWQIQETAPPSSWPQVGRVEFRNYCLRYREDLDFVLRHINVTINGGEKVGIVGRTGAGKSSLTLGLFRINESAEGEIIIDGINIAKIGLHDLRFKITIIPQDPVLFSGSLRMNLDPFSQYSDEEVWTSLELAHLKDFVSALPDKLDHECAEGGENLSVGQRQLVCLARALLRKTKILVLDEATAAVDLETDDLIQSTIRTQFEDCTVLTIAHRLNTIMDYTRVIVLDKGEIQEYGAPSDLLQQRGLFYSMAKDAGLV

| SMILES | EC50 (MRP1) [µM] | efflux ratio (P-gp [1]) | EC50 (P-gp [2]) [µM] | activity towards MRP1 (in words) (MRP1) |
| --- | --- | --- | --- | --- |
| COc1cc2c(cc1OC)CN(Cc1csc(-c3ccc4cc(Br)ccc4c3)n1)CC2 [R2 = H, R1 = Br, X = S, (2-((2-(2-Bromonaftalen-6-il)thiazol-4-il)metil)-1,2,3,4-tetraidro-6,7-dimetossiisochinolina] | > 100 | 6 | 3.7 |  |
| COc1cc2c(cc1OC)CN(Cc1coc(-c3ccc4cc(O)ccc4c3)n1)CC2 [R2 = H, R1 = OH, X = O, 2-((2-(2-hydroxynaphthalen-6-yl)oxazol-4-yl)methyl)-1,2,3,4-tetrahydro-6,7-dimethoxyisoquinoline] | > 100 | 1.6 | 2.8 | inactive |
| COc1cc2c(cc1OC)CN(Cc1coc(-c3ccc4cc(F)ccc4c3)n1)CC2 [R2 = H, R1 = F, X = O, 2-((2-(2-fluoronaphthalen-6-yl)oxazol-4-yl)methyl)-1,2,3,4-tetrahydro-6,7-dimethoxyisoquinoline] | 31.8 | 0.8 | 5.2 |  |
| COc1ccc2cc(-c3nc(CN4CCc5cc(OC)c(OC)cc5C4)cs3)ccc2c1 [R2 = H, R1 = OCH3, X = S, 1,2,3,4-tetrahydro-6,7-dimethoxy-2-((2-(2-methoxynaphthalen-6-yl)thiazol-4-yl)methyl)isoquinoline] | > 100 | 6 | 1 |  |
| COc1cc2c(cc1OC)CN(Cc1coc(-c3ccc4ccccc4c3)n1)CC2 [R2 = H, R1 = H, X = O, 1,2,3,4-tetrahydro-6,7-dimethoxy-2-((2-(naphthalen-6-yl)oxazol-4-yl)methyl)isoquinoline] | 33.2 | 0.4 | 2.7 |  |
